Laboratory results published in article PMC12090182, “Repurposing of the RIPK1-Selective Benzo[1,4]oxazepin-4-one Scaffold for the Development of a Type III LIMK1/2 Inhibitor” (ACS Chemical Biology, 2025).

Columns and labels:
Type in all cases: cell-based
Conditions in all cases: HEK-293T; 1 μM inhibitor, HEK293T cells
[1] = molecular target: NTRK1 (Homo sapiens, UniProt P04629)
Protocol: (§1) For plate preparation, a transfection mix was prepared in white 384-well small-volume plates (Greiner, cat. no. 784075) by preplating 3 μL of 20 μL/mL FuGene HD (Promega, cat. no. E2311), diluted in an Opti-MEM medium (Gibco, cat. no. 11058-021). One μL of DNA from both DNA vector source plates of the K192 kit was added using an Echo 550 acoustic dispenser (Beckman Coulter). The mix was incubated for 30 min, and 6 μL of HEK293T cells in an Opti-MEM medium was added. The proteins were allowed to express for 20 h. After expression, Tracer K10 was added using the concentrations recommended in the K192 technical manual and a 1 μM inhibitor was added to every second well. […] Five μL of substrate solution was added to every well, and filtered luminescence was measured on a PHERAstar plate reader (BMG Labtech) equipped with a luminescence filter pair (450 nm BP filter (donor) and a 610 nm LP filter (acceptor)). For every kinase, occupancy was calculated and plotted using GraphPad Prism 10 (Table S5).

[2] = molecular target: PLK4 (Homo sapiens, UniProt O00444)
Protocol: as §1

[3] = molecular target: MAPK6 (Homo sapiens, UniProt Q16659)
Protocol: as §1

[4] = molecular target: LATS2 (Homo sapiens, UniProt Q9NRM7)
Protocol: as §1

[5] = molecular target: STK11 (Homo sapiens, UniProt Q15831)
Protocol: as §1

[6] = molecular target: DAPK2 (Homo sapiens, UniProt Q9UIK4)
Protocol: as §1

[7] = molecular target: NLK (Homo sapiens, UniProt Q9UBE8)
Protocol: as §1

[8] = molecular target: NEK1 (Homo sapiens, UniProt Q96PY6)
Protocol: as §1

[9] = molecular target: ITK (Homo sapiens, UniProt Q08881)
Protocol: as §1

[10] = molecular target: TNK1 (Homo sapiens, UniProt Q13470)
Protocol: as §1

[11] = molecular target: IRAK3 (Homo sapiens, UniProt Q9Y616)
Protocol: as §1

[12] = molecular target: MERTK (Homo sapiens, UniProt Q12866)
Protocol: as §1

[13] = molecular target: CDK7 (Homo sapiens, UniProt P50613)
Protocol: as §1

[14] = molecular target: WEE2 (Homo sapiens, UniProt P0C1S8)
Protocol: as §1

[15] = molecular target: RPS6KA4 (Homo sapiens, UniProt O75676)
Protocol: as §1

[16] = molecular target: SIK1 (Homo sapiens, UniProt P57059)
Protocol: as §1

[17] = molecular target: CAMK1 (Homo sapiens, UniProt Q14012)
Protocol: as §1

[18] = molecular target: RON (Homo sapiens, UniProt Q04912)
Protocol: as §1

[19] = molecular target: FGFR4 (Homo sapiens, UniProt P22455)
Protocol: as §1

[20] = molecular target: PRKAA2 (Homo sapiens, UniProt P54646)
Protocol: as §1

[21] = molecular target: CDKL1 (Homo sapiens, UniProt Q00532)
Protocol: as §1

[22] = molecular target: CDK14 (Homo sapiens, UniProt O94921)
Protocol: as §1

[23] = molecular target: TIE1 (Homo sapiens, UniProt P35590)
Protocol: as §1

[24] = molecular target: STK16 (Homo sapiens, UniProt O75716)
Protocol: as §1

[25] = molecular target: MKNK2 (Homo sapiens, UniProt Q9HBH9)
Protocol: as §1

[26] = molecular target: PHKG1 (Homo sapiens, UniProt Q16816)
Protocol: as §1

[27] = molecular target: MAP3K19 (Homo sapiens, UniProt Q56UN5)
Protocol: as §1

[28] = molecular target: PRKX (Homo sapiens, UniProt P51817)
Protocol: as §1

[29] = molecular target: CSNK1G2 (Homo sapiens, UniProt P78368)
Protocol: as §1

[30] = molecular target: PTK6 (Homo sapiens, UniProt Q13882)
Protocol: as §1

[31] = molecular target: INSR (Homo sapiens, UniProt P06213)
Protocol: as §1

[32] = molecular target: STK10 (Homo sapiens, UniProt O94804)
Protocol: as §1

[33] = molecular target: CAMK2A (Homo sapiens, UniProt Q9UQM7)
Protocol: as §1

[34] = molecular target: STK32B (Homo sapiens, UniProt Q9NY57)
Protocol: as §1

[35] = molecular target: RIOK2 (Homo sapiens, UniProt Q9BVS4)
Protocol: as §1

[36] = molecular target: MLTK (Homo sapiens, UniProt Q9NYL2)
Protocol: as §1

[37] = molecular target: MAPK9 (Homo sapiens, UniProt P45984)
Protocol: as §1

Sequence of CDK7 (P50613 whole entry): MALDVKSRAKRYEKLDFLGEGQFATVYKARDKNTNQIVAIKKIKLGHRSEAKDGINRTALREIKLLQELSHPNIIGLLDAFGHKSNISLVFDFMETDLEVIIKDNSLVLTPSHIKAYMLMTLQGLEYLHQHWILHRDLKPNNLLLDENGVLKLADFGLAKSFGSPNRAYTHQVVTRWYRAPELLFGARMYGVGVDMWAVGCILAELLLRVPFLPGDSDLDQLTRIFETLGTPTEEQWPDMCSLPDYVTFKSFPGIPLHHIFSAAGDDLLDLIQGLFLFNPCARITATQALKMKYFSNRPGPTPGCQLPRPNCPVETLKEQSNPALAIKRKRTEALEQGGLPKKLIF
Sequence of CAMK1 (Q14012 whole entry): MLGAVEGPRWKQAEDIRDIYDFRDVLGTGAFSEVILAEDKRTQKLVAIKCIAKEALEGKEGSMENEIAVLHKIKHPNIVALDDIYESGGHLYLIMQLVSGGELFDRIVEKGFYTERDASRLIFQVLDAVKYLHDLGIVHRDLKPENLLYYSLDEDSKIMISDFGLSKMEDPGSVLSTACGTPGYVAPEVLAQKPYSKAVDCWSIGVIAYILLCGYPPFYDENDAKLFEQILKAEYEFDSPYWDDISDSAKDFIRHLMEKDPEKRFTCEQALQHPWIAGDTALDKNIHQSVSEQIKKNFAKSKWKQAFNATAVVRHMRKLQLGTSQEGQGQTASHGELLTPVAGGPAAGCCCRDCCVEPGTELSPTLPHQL
Sequence of RON (Q04912 25-1400): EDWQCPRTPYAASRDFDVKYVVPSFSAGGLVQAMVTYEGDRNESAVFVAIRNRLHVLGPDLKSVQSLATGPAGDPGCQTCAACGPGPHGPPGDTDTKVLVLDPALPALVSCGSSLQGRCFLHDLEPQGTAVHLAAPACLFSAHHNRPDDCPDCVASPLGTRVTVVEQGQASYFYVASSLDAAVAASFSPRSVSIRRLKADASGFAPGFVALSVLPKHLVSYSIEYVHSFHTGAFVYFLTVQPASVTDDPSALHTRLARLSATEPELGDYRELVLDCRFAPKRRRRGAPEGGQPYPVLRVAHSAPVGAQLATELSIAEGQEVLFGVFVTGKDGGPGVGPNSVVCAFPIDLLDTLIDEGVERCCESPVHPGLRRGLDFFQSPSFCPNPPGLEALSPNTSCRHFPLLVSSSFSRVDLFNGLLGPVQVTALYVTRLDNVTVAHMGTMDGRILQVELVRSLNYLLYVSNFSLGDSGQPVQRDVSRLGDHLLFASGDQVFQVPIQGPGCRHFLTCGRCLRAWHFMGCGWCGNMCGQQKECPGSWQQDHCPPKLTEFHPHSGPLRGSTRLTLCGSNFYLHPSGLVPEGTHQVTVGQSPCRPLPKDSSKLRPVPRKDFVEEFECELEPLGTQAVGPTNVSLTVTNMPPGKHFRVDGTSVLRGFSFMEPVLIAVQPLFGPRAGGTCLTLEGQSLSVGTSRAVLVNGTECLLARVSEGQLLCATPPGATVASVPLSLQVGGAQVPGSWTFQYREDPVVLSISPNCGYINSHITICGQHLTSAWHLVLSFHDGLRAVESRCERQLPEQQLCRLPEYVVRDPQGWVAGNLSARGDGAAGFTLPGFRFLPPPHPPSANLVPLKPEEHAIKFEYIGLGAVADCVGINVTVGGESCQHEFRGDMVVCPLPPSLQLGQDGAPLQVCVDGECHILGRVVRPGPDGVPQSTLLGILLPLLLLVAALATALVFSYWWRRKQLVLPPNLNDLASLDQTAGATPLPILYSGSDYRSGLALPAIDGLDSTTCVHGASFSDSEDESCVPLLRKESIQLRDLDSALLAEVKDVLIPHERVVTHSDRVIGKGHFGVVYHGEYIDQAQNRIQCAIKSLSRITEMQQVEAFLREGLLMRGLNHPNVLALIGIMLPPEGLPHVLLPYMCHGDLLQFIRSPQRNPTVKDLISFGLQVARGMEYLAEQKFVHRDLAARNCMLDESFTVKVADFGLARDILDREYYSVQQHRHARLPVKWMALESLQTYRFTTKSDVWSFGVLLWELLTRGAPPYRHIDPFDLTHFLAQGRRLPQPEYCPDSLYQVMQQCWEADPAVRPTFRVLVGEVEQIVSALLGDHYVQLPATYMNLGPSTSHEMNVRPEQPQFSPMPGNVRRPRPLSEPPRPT
Sequence of CAMK2A (Q9UQM7 whole entry): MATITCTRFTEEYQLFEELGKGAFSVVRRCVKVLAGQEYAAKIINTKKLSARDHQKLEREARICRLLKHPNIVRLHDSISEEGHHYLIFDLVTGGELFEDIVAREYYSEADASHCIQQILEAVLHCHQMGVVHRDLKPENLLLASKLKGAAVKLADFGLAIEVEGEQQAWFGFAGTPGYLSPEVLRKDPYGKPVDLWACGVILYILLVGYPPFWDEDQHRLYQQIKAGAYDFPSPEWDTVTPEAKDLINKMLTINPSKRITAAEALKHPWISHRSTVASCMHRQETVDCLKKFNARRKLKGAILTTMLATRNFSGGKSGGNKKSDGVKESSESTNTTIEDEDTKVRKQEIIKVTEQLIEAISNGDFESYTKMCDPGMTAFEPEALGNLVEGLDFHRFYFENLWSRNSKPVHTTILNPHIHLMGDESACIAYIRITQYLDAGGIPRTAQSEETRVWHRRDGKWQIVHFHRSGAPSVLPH
Sequence of FGFR4 (P22455 22-802): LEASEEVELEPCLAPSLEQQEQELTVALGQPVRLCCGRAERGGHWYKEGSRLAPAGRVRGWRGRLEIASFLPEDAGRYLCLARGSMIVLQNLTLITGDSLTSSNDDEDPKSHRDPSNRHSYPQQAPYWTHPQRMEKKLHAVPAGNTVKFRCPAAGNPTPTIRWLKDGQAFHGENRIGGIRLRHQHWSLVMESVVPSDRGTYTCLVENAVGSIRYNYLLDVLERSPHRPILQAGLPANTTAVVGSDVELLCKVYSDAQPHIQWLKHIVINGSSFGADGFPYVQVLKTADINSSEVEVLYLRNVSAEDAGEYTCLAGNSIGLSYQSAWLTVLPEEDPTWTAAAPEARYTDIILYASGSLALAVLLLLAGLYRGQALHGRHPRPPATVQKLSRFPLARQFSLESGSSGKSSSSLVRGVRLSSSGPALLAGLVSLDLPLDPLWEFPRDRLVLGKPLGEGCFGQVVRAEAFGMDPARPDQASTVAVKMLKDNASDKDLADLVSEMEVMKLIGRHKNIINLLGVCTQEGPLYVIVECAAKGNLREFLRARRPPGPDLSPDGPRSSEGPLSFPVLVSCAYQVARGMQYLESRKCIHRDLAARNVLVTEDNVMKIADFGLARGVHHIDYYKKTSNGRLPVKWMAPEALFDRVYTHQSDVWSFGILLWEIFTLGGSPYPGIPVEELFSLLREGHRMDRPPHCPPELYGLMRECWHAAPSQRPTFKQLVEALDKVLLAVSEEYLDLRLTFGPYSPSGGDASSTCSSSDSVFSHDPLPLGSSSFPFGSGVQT
Sequence of CSNK1G2 (P78368 whole entry): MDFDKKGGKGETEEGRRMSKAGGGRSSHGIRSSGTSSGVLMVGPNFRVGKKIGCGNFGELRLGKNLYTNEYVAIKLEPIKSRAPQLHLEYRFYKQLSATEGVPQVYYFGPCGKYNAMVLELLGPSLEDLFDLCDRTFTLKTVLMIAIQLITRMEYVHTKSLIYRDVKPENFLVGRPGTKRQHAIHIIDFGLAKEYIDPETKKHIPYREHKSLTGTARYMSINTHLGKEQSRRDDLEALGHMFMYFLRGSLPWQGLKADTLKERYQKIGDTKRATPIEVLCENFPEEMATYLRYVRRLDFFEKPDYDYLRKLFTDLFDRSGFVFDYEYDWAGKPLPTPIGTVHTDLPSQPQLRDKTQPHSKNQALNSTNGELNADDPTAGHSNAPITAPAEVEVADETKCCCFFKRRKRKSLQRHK
Sequence of RPS6KA4 (O75676 whole entry): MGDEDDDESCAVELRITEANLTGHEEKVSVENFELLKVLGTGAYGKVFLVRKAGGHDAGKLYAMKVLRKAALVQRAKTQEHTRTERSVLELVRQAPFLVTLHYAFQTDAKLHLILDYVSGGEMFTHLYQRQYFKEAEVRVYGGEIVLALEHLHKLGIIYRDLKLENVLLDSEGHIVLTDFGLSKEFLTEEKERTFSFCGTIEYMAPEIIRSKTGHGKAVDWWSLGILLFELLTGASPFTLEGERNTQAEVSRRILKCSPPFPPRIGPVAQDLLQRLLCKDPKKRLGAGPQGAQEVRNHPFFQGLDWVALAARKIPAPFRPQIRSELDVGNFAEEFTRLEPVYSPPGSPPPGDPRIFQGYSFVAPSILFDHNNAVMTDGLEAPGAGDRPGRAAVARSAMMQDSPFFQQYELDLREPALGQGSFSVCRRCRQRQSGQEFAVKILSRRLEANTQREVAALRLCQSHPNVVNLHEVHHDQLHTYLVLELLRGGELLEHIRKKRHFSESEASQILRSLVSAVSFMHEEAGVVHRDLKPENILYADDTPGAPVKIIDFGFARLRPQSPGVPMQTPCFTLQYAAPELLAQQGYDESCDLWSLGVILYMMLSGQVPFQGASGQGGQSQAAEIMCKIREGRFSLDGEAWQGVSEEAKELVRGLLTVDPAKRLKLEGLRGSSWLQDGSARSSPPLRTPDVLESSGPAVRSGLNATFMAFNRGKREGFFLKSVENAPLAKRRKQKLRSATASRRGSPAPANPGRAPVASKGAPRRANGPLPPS
Sequence of STK16 (O75716 whole entry): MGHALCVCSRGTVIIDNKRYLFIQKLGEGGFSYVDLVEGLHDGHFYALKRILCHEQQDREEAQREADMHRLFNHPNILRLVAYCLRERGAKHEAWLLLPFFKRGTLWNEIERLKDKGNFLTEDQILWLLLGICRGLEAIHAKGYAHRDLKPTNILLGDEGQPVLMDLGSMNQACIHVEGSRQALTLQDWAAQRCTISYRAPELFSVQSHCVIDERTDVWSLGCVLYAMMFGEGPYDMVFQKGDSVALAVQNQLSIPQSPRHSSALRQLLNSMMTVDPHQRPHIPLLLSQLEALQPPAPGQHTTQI

Structure (SMILES): CN1C(=O)[C@@H](N2CCc3c(nn(Cc4ccccc4)c3C(N)=O)C2=O)COc2cc(Cl)ccc21 [Compound 10, (S)-2-benzyl-6-(8-chloro-5-methyl-4-oxo-2,3,4,5-tetrahydrobenzo[b][1,4]oxazepin-3-yl)-7-oxo-4,5,6,7-tetrahydro-2H-pyrazolo[3,4-c]pyridine-3-carboxamide]
- receptor occupancy at 1 µM [1]: 0.821%
- receptor occupancy at 1 µM [2]: 10.7%
- receptor occupancy at 1 µM [3]: -8.43%
- receptor occupancy at 1 µM [4]: 8.35%
- receptor occupancy at 1 µM [5]: -4.45%
- receptor occupancy at 1 µM [6]: -5.62%
- receptor occupancy at 1 µM [7]: 5.94%
- receptor occupancy at 1 µM [8]: 8.46%
- receptor occupancy at 1 µM [9]: 2.24%
- receptor occupancy at 1 µM [10]: -2.13%
- receptor occupancy at 1 µM [11]: -5.37%
- receptor occupancy at 1 µM [12]: 0.31%
- receptor occupancy at 1 µM [13]: -11.3%
- receptor occupancy at 1 µM [14]: -0.12%
- receptor occupancy at 1 µM [15]: 7.5%
- receptor occupancy at 1 µM [16]: -3.59%
- receptor occupancy at 1 µM [17]: 2.97%
- receptor occupancy at 1 µM [18]: 0.288%
- receptor occupancy at 1 µM [19]: 5%
- receptor occupancy at 1 µM [20]: 2.71%
- receptor occupancy at 1 µM [21]: 12.6%
- receptor occupancy at 1 µM [22]: 4.07%
- receptor occupancy at 1 µM [23]: -1.51%
- receptor occupancy at 1 µM [24]: -1.63%
- receptor occupancy at 1 µM [25]: 2.69%
- receptor occupancy at 1 µM [26]: -0.896%
- receptor occupancy at 1 µM [27]: 10.7%
- receptor occupancy at 1 µM [28]: 2.51%
- receptor occupancy at 1 µM [29]: 3.57%
- receptor occupancy at 1 µM [30]: 2.55%
- receptor occupancy at 1 µM [31]: 4.94%
- receptor occupancy at 1 µM [32]: -3.32%
- receptor occupancy at 1 µM [33]: -6.57%
- receptor occupancy at 1 µM [34]: -4.21%
- receptor occupancy at 1 µM [35]: -2.88%
- receptor occupancy at 1 µM [36]: -2.56%
- receptor occupancy at 1 µM [37]: -2.07%
